Measured values reported in patent US20230085307A1, “PYRIDAZINONE COMPOUND AND HERBICIDE” (NISSAN CHEMICAL CORPORATION, priority 2019, published 2023).

What was measured:
barnyard grass [1] = experiment: Test Example 3: herbicidal effect by foliage application, Wagner pot (Table 18, symbol H); format: in vivo, barnyard grass (Echinochloa crus-galli); settings: amount of applied herbicide 320 g/ha
Method in brief: (§1)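 Plants were sown in alluvial soil held under 0.1–0.5 cm standing water and grown 14 days in a greenhouse at 25–30 °C. An emulsifiable formulation, water-diluted to the set dose, was then sprayed onto the foliage, and effects were scored three weeks later using previously defined criteria.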

Chinese sprangletop = experiment: Test Example 3: herbicidal effect by foliage application, Wagner pot (Table 18, symbol D); format: in vivo, chinese sprangletop (Leptochloa chinensis); settings: amount of applied herbicide 320 g/ha
Method in brief: as §1

rice flat sedge = experiment: Test Example 3: herbicidal effect by foliage application, Wagner pot (Table 18, symbol E); format: in vivo, rice flat sedge (Cyperus iria); settings: amount of applied herbicide 320 g/ha
Method in brief: as §1

southern crabgrass [2] = experiment: Test Example 4: herbicidal effect by soil treatment (Table 19, symbol F); format: in vivo, southern crabgrass (Digitaria ciliaris); settings: amount of applied herbicide 320 g/ha
Method in brief: (§2)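 Emulsion of test compound, water-diluted to predetermined amount, sprayed on soil after sowing (seed depth ~1.5 cm, sterilized diluvial soil). Greenhouse, 25–30° C. Effect graded at three weeks post-spray.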

barnyard grass [3] = experiment: Test Example 4: herbicidal effect by soil treatment (Table 19, symbol H); format: in vivo, barnyard grass (Echinochloa crus-galli); settings: amount of applied herbicide 320 g/ha
Method in brief: as §2

wild oat [4] = experiment: Test Example 4: herbicidal effect by soil treatment (Table 19, symbol I); format: in vivo, wild oat (Avena fatua); settings: amount of applied herbicide 320 g/ha
Method in brief: as §2

blackgrass [5] = experiment: Test Example 4: herbicidal effect by soil treatment (Table 19, symbol J); format: in vivo, blackgrass (Alopecurus myosuroides); settings: amount of applied herbicide 320 g/ha
Method in brief: as §2

Italian ryegrass [6] = experiment: Test Example 4: herbicidal effect by soil treatment (Table 19, symbol K); format: in vivo, Italian ryegrass (Lolium multiflorum); settings: amount of applied herbicide 320 g/ha
Method in brief: as §2

windgrass [7] = experiment: Test Example 4: herbicidal effect by soil treatment (Table 19, symbol L); format: in vivo, windgrass (Apera spica-venti); settings: amount of applied herbicide 320 g/ha
Method in brief: as §2

velvetleaf [8] = experiment: Test Example 4: herbicidal effect by soil treatment (Table 19, symbol M); format: in vivo, velvetleaf (Abutilon theophrasti); settings: amount of applied herbicide 320 g/ha
Method in brief: as §2

lambsquarters [9] = experiment: Test Example 4: herbicidal effect by soil treatment (Table 19, symbol O); format: in vivo, lambsquarters (Chenopodium album); settings: amount of applied herbicide 320 g/ha
Method in brief: as §2

chickweed [10] = experiment: Test Example 4: herbicidal effect by soil treatment (Table 19, symbol P); format: in vivo, common chickweed (Stellaria media); settings: amount of applied herbicide 320 g/ha
Method in brief: as §2

false cleavers [11] = experiment: Test Example 4: herbicidal effect by soil treatment (Table 19, symbol Q); format: in vivo, false cleavers (Galium spurium); settings: amount of applied herbicide 320 g/ha
Method in brief: as §2

persian speedwell [12] = experiment: Test Example 4: herbicidal effect by soil treatment (Table 19, symbol R); format: in vivo, Persian speedwell (Veronica persica); settings: amount of applied herbicide 320 g/ha
Method in brief: as §2

southern crabgrass [13] = experiment: Test Example 5: herbicidal effect by foliage application, plastic box (Table 20, symbol F); format: in vivo, southern crabgrass (Digitaria ciliaris); settings: foliage application, 320 g/ha
Method in brief: (§3)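 Post-emergence foliar test in sterilized diluvial soil. Compound applied as water-diluted emulsion at a predetermined rate to 14-day-old plants; evaluation at three weeks.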

green foxtail [14] = experiment: Test Example 5: herbicidal effect by foliage application, plastic box (Table 20, symbol G); format: in vivo, green foxtail (Setaria viridis); settings: foliage application, 320 g/ha
Method in brief: as §3

barnyard grass [15] = experiment: Test Example 5: herbicidal effect by foliage application, plastic box (Table 20, symbol H); format: in vivo, barnyard grass (Echinochloa crus-galli); settings: foliage application, 320 g/ha
Method in brief: as §3

wild oat [16] = experiment: Test Example 5: herbicidal effect by foliage application, plastic box (Table 20, symbol I); format: in vivo, wild oat (Avena fatua); settings: foliage application, 320 g/ha
Method in brief: as §3

blackgrass [17] = experiment: Test Example 5: herbicidal effect by foliage application, plastic box (Table 20, symbol J); format: in vivo, blackgrass (Alopecurus myosuroides); settings: foliage application, 320 g/ha
Method in brief: as §3

Italian ryegrass [18] = experiment: Test Example 5: herbicidal effect by foliage application, plastic box (Table 20, symbol K); format: in vivo, Italian ryegrass (Lolium multiflorum); settings: foliage application, 320 g/ha
Method in brief: as §3

windgrass [19] = experiment: Test Example 5: herbicidal effect by foliage application, plastic box (Table 20, symbol L); format: in vivo, windgrass (Apera spica-venti); settings: foliage application, 320 g/ha
Method in brief: as §3

velvetleaf [20] = experiment: Test Example 5: herbicidal effect by foliage application, plastic box (Table 20, symbol M); format: in vivo, velvetleaf (Abutilon theophrasti); settings: foliage application, 320 g/ha
Method in brief: as §3

redroot pigweed [21] = experiment: Test Example 5: herbicidal effect by foliage application, plastic box (Table 20, symbol N); format: in vivo, redroot pigweed (Amaranthus retroflexus); settings: foliage application, 320 g/ha
Method in brief: as §3

lambsquarters [22] = experiment: Test Example 5: herbicidal effect by foliage application, plastic box (Table 20, symbol O); format: in vivo, lambsquarters (Chenopodium album); settings: foliage application, 320 g/ha
Method in brief: as §3

chickweed [23] = experiment: Test Example 5: herbicidal effect by foliage application, plastic box (Table 20, symbol P); format: in vivo, common chickweed (Stellaria media); settings: foliage application, 320 g/ha
Method in brief: as §3

false cleavers [24] = experiment: Test Example 5: herbicidal effect by foliage application, plastic box (Table 20, symbol Q); format: in vivo, false cleavers (Galium spurium); settings: foliage application, 320 g/ha
Method in brief: as §3

persian speedwell [25] = experiment: Test Example 5: herbicidal effect by foliage application, plastic box (Table 20, symbol R); format: in vivo, Persian speedwell (Veronica persica); settings: foliage application, 320 g/ha
Method in brief: as §3

green foxtail [26] = experiment: Test Example 4: herbicidal effect by soil treatment (Table 19, symbol G); format: in vivo, green foxtail (Setaria viridis); settings: amount of applied herbicide 320 g/ha
Method in brief: as §2

redroot pigweed [27] = experiment: Test Example 4: herbicidal effect by soil treatment (Table 19, symbol N); format: in vivo, redroot pigweed (Amaranthus retroflexus); settings: amount of applied herbicide 320 g/ha
Method in brief: as §2

[28] = evaluated three weeks after application

COc1cc(F)ccc1-c1sc2ccc(C)cc2c1-c1c(O)c(C)nn(C)c1=O [2-148]
herbicidal effect on H: barnyard grass (barnyard grass [1]): 5 (Herbicidal rate of 90% or more (almost completely withered)) | herbicidal effect on D: Chinese sprangletop (Chinese sprangletop): 3 (Herbicidal rate of 40% or more and less than 70%) | herbicidal effect on E: rice flat sedge (rice flat sedge): 5 (Herbicidal rate of 90% or more (almost completely withered)) | F: southern crabgrass, herbicidal effect rating (southern crabgrass [2]): 3 (Herbicidal rate of 40% or more and less than 70%) | H: barnyard grass, herbicidal effect rating (barnyard grass [3]): 4 (Herbicidal rate of 70% or more and less than 90%) | I: wild oat, herbicidal effect rating (wild oat [4]): 0 (Herbicidal rate of 5% or less (almost no effect)) | J: blackgrass, herbicidal effect rating (blackgrass [5]): 3 (Herbicidal rate of 40% or more and less than 70%) | K: Italian ryegrass, herbicidal effect rating (Italian ryegrass [6]): 1 (Herbicidal rate of 5% or more and less than 20%) | L: windgrass, herbicidal effect rating (windgrass [7]): 0 (Herbicidal rate of 5% or less (almost no effect)) | M: velvetleaf, herbicidal effect rating (velvetleaf [8]): 3 (Herbicidal rate of 40% or more and less than 70%) | O: lambsquarters, herbicidal effect rating (lambsquarters [9]): 5 (Herbicidal rate of 90% or more (almost completely withered)) | P: chickweed, herbicidal effect rating (chickweed [10]): 5 (Herbicidal rate of 90% or more (almost completely withered)) | Q: false cleavers, herbicidal effect rating (false cleavers [11]): 5 (Herbicidal rate of 90% or more (almost completely withered)) | R: persian speedwell, herbicidal effect rating (persian speedwell [12]): 5 (Herbicidal rate of 90% or more (almost completely withered)) | herbicidal effect on F: southern crabgrass (criteria 0-5) (southern crabgrass [13]; [28]): 5 (Herbicidal rate of 90% or more (almost completely withered)) | herbicidal effect on G: green foxtail (criteria 0-5) (green foxtail [14]; [28]): 5 (Herbicidal rate of 90% or more (almost completely withered)) | herbicidal effect on H: barnyard grass (criteria 0-5) (barnyard grass [15]; [28]): 5 (Herbicidal rate of 90% or more (almost completely withered)) | herbicidal effect on I: wild oat (criteria 0-5) (wild oat [16]; [28]): 3 (Herbicidal rate of 40% or more and less than 70%) | herbicidal effect on J: blackgrass (criteria 0-5) (blackgrass [17]; [28]): 4 (Herbicidal rate of 70% or more and less than 90%) | herbicidal effect on K: Italian ryegrass (criteria 0-5) (Italian ryegrass [18]; [28]): 4 (Herbicidal rate of 70% or more and less than 90%) | herbicidal effect on L: windgrass (criteria 0-5) (windgrass [19]; [28]): 3 (Herbicidal rate of 40% or more and less than 70%) | herbicidal effect on M: velvetleaf (criteria 0-5) (velvetleaf [20]; [28]): 4 (Herbicidal rate of 70% or more and less than 90%) | herbicidal effect on N: redroot pigweed (criteria 0-5) (redroot pigweed [21]; [28]): 5 (Herbicidal rate of 90% or more (almost completely withered)) | herbicidal effect on O: lambsquarters (criteria 0-5) (lambsquarters [22]; [28]): 4 (Herbicidal rate of 70% or more and less than 90%) | herbicidal effect on P: chickweed (criteria 0-5) (chickweed [23]; [28]): 5 (Herbicidal rate of 90% or more (almost completely withered)) | herbicidal effect on Q: false cleavers (criteria 0-5) (false cleavers [24]; [28]): 5 (Herbicidal rate of 90% or more (almost completely withered)) | herbicidal effect on R: persian speedwell (criteria 0-5) (persian speedwell [25]; [28]): 5 (Herbicidal rate of 90% or more (almost completely withered))

CCCC(=O)Oc1c(C)nn(C)c(=O)c1-c1c(-c2ccc(OCC)cc2)sc2cc(OC)ccc12 [3-073]
F: southern crabgrass, herbicidal effect grade (southern crabgrass [2]): 3 (Herbicidal rate of 40% or more and less than 70%) | G: green foxtail, herbicidal effect grade (green foxtail [26]): 3 (Herbicidal rate of 40% or more and less than 70%) | H: barnyard grass, herbicidal effect grade (barnyard grass [3]): 3 (Herbicidal rate of 40% or more and less than 70%) | I: wild oat, herbicidal effect grade (wild oat [4]): 0 (Herbicidal rate of 5% or less (almost no effect)) | J: blackgrass, herbicidal effect grade (blackgrass [5]): 0 (Herbicidal rate of 5% or less (almost no effect)) | K: Italian ryegrass, herbicidal effect grade (Italian ryegrass [6]): 0 (Herbicidal rate of 5% or less (almost no effect)) | L: windgrass, herbicidal effect grade (windgrass [7]): 0 (Herbicidal rate of 5% or less (almost no effect)) | M: velvetleaf, herbicidal effect grade (velvetleaf [8]): 0 (Herbicidal rate of 5% or less (almost no effect)) | N: redroot pigweed, herbicidal effect grade (redroot pigweed [27]): 4 (Herbicidal rate of 70% or more and less than 90%) | O: lambsquarters, herbicidal effect grade (lambsquarters [9]): 3 (Herbicidal rate of 40% or more and less than 70%) | P: chickweed, herbicidal effect grade (chickweed [10]): 4 (Herbicidal rate of 70% or more and less than 90%) | Q: false cleavers, herbicidal effect grade (false cleavers [11]): 2 (Herbicidal rate of 20% or more and less than 40%) | R: persian speedwell, herbicidal effect grade (persian speedwell [12]): 4 (Herbicidal rate of 70% or more and less than 90%) | F: southern crabgrass, herbicidal effect grade (southern crabgrass [13]; three weeks after application): 2 (Herbicidal rate of 20% or more and less than 40%) | G: green foxtail, herbicidal effect grade (green foxtail [14]; three weeks after application): 0 (Herbicidal rate of 5% or less (almost no effect)) | H: barnyard grass, herbicidal effect grade (barnyard grass [15]; three weeks after application): 0 (Herbicidal rate of 5% or less (almost no effect)) | I: wild oat, herbicidal effect grade (wild oat [16]; three weeks after application): 0 (Herbicidal rate of 5% or less (almost no effect)) | J: blackgrass, herbicidal effect grade (blackgrass [17]; three weeks after application): 0 (Herbicidal rate of 5% or less (almost no effect)) | K: Italian ryegrass, herbicidal effect grade (Italian ryegrass [18]; three weeks after application): 0 (Herbicidal rate of 5% or less (almost no effect)) | L: windgrass, herbicidal effect grade (windgrass [19]; three weeks after application): 0 (Herbicidal rate of 5% or less (almost no effect)) | M: velvetleaf, herbicidal effect grade (velvetleaf [20]; three weeks after application): 3 (Herbicidal rate of 40% or more and less than 70%) | N: redroot pigweed, herbicidal effect grade (redroot pigweed [21]; three weeks after application): 3 (Herbicidal rate of 40% or more and less than 70%) | O: lambsquarters, herbicidal effect grade (lambsquarters [22]; three weeks after application): 2 (Herbicidal rate of 20% or more and less than 40%) | P: chickweed, herbicidal effect grade (chickweed [23]; three weeks after application): 5 (Herbicidal rate of 90% or more (almost completely withered)) | Q: false cleavers, herbicidal effect grade (false cleavers [24]; three weeks after application): 4 (Herbicidal rate of 70% or more and less than 90%) | R: persian speedwell, herbicidal effect grade (persian speedwell [25]; three weeks after application): 5 (Herbicidal rate of 90% or more (almost completely withered))
